Assay results reported in US9980943B2, “Methods of treating muscular dystrophy” (BOARD OF REGENTS OF THE NEVADA SYSTEM OF HIGHER EDUCATION, …, priority 2013, dated 2018).

Columns and labels:
Format in all cases: cell-based, mouse
[1] = tested on: α7 integrin (LacZ reporter in α7βgal+/− myoblasts); assay: Myoblast α7+/LacZ integrin FDG assay (Burkin assay in myoblasts, 96-well); details: α7+/LacZ myoblasts, 96-well
[2] = tested on: α7 integrin (LacZ reporter in α7+/LacZ myotubes); assay: Myotube α7 integrin FDG assay (Burkin assay in myotubes, 96-well); details: myotubes
[3] = tested on: β-galactosidase in CMV-LacZ C2C12 myoblasts; assay: CMV-LacZ secondary screen in C2C12 myoblasts (β-Gal stabilizing assay); details: CMV-LacZ C2C12 myoblasts
Outline: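 CMV-LacZ C2C12 line (clonal, FDG-screened); myoblasts/myotubes dosed 0.5–40 μM (0.5, 1, 5, 10, 20, 40 μM); n=2 per point; β-gal stabilization read-out.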

[4] = tested on: β-galactosidase in CMV-LacZ C2C12 myotubes; assay: CMV-LacZ secondary screen in C2C12 myotubes (β-Gal stabilizing assay); details: C2C12 CMV-LacZ myotubes, fold relative to DMSO
Outline: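 Stable CMV-LacZ C2C12 clone; six-point curve 0.5–40 μM; duplicates.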

Row | SMILES | Burkin Assay in Myoblasts, signal relative to DMSO ([1]; 0.5 uM) | Burkin Assay in Myoblasts, signal relative to DMSO ([1]; 1 uM) | Burkin Assay in Myoblasts, signal relative to DMSO ([1]; 5 uM) | Burkin Assay in Myoblasts, signal relative to DMSO ([1]; 10 uM) | Burkin Assay in Myoblasts, signal relative to DMSO ([1]; 20 uM) | Burkin Assay in Myoblasts, signal relative to DMSO ([1]; 40 uM) | Burkin Assay in Myotubes, α7 integrin LacZ reporter signal relative to DMSO ([2]; 0.5 uM) | Burkin Assay in Myotubes, α7 integrin LacZ reporter signal relative to DMSO ([2]; 1 uM) | Burkin Assay in Myotubes, α7 integrin LacZ reporter signal relative to DMSO ([2]; 5 uM) | Burkin Assay in Myotubes, α7 integrin LacZ reporter signal relative to DMSO ([2]; 10 uM) | Burkin Assay in Myotubes, α7 integrin LacZ reporter signal relative to DMSO ([2]; 20 uM) | Burkin Assay in Myotubes, α7 integrin LacZ reporter signal relative to DMSO ([2]; 40 uM) | CMV-LACZ in Myoblasts (β-galactosidase activity relative to DMSO) ([3]; 0.5 uM) | CMV-LACZ in Myoblasts (β-galactosidase activity relative to DMSO) ([3]; 1 uM) | CMV-LACZ in Myoblasts (β-galactosidase activity relative to DMSO) ([3]; 5 uM) | CMV-LACZ in Myoblasts (β-galactosidase activity relative to DMSO) ([3]; 10 uM) | CMV-LACZ in Myoblasts (β-galactosidase activity relative to DMSO) ([3]; 20 uM) | CMV-LACZ in Myoblasts (β-galactosidase activity relative to DMSO) ([3]; 40 uM) | CMV-LACZ in Myotubes, signal relative to DMSO ([4]; 0.5 uM) | CMV-LACZ in Myotubes, signal relative to DMSO ([4]; 1 uM) | other results
1 | Cn1cc(CN2CCC(C(=O)Nc3cccc(-c4cscn4)c3)CC2)cn1 [MLS001105912-01] | 1.162 | 1.057 | 1.029 | 1.246 | 0.6025 | 0.4631 | 0.9483 | 1.061 | 0.9467 | 1.1322 | 0.8299 | 1.003 | 1.0725 | 1.0321 | 1.0003 | 0.9597 | 0.5323 | 0.3873 | 1.1391 | 0.9618 | CMV-LACZ in Myotubes, signal relative to DMSO ([4]; 5 uM): 0.9313; CMV-LACZ in Myotubes, signal relative to DMSO ([4]; 10 uM): 1.0857; CMV-LACZ in Myotubes, signal relative to DMSO ([4]; 20 uM): 1.1910; CMV-LACZ in Myotubes, signal relative to DMSO ([4]; 40 uM): 1.8130
2 | CCC(CC)C(=O)Nc1c(C(=O)N2CCN(c3ccccc3)CC2)oc2ccccc12 [MLS001116079-01] | 1.03 | 1.087 | 1.025 | 0.9749 | 1.244 | 1.34 | 0.9524 | 0.9502 | 0.9559 | 0.9012 | 0.9027 | 0.9686 | 1.0950 | 1.0492 | 0.9306 | 1.0228 | 1.0448 | 0.9078 | 1.3543 | 0.8152 | CMV-LACZ in Myotubes, signal relative to DMSO ([4]; 5 uM): 1.0227; CMV-LACZ in Myotubes, signal relative to DMSO ([4]; 10 uM): 1.1374; CMV-LACZ in Myotubes, signal relative to DMSO ([4]; 20 uM): 0.9063; CMV-LACZ in Myotubes, signal relative to DMSO ([4]; 40 uM): 1.0811
3 | Cc1ccc(NS(=O)(=O)c2ccc(-c3ccc(=O)[nH]n3)o2)c(C)c1 [MLS001116535-01] | 1.092 | 1.111 | 0.998 | 0.9386 | 1.239 | 1.267 | 0.95 | 1.003 | 0.8929 | 0.8553 | 0.8993 | 0.8366 | 1.0167 | 1.1779 | 1.0944 | 1.0580 | 1.1815 | 1.1263 | 1.2552 | 0.8771 | CMV-LACZ in Myotubes, signal relative to DMSO ([4]; 5 uM): 1.0648; CMV-LACZ in Myotubes, signal relative to DMSO ([4]; 10 uM): 1.2856; CMV-LACZ in Myotubes, signal relative to DMSO ([4]; 20 uM): 0.9800; CMV-LACZ in Myotubes, signal relative to DMSO ([4]; 40 uM): 1.0011
4 | Cc1ccccc1NC(=O)c1ccc2c(O)c(S(=O)(=O)c3ccccc3)c(=O)[nH]c2c1 [MLS001122698-01] | 0.9829 | 0.8573 | 1.008 | 0.9652 | 0.9061 | 0.8389 | 0.9131 | 0.9039 | 0.9575 | 1.03 | 0.9209 | 0.8572 | 1.1513 | 1.1003 | 0.7759 | 0.8608 | 1.0404 | 1.0639 | 1.0019 | 1.0133 | CMV-LACZ in Myotubes, signal relative to DMSO ([4]; 5 uM): 1.2038; CMV-LACZ in Myotubes, signal relative to DMSO ([4]; 10 uM): 1.1482; CMV-LACZ in Myotubes, signal relative to DMSO ([4]; 20 uM): 1.0340; CMV-LACZ in Myotubes, signal relative to DMSO ([4]; 40 uM): 1.0110
5 | COc1cc(C=O)ccc1OCC(=O)Nc1ccc2c(c1)OCO2 [MLS001123876-01] | 1.041 | 0.8264 | 1.44 | 1.095 | 0.9339 | 0.8844 | 0.866 | 0.8193 | 1.1689 | 1.232 | 0.7114 | 1.003 | 0.8260 | 1.0263 | 0.9251 | 0.9871 | 0.9618 | 0.7333 | 0.8962 | 1.4943 | CMV-LACZ in Myotubes, signal relative to DMSO ([4]; 5 uM): 0.9002; CMV-LACZ in Myotubes, signal relative to DMSO ([4]; 10 uM): 0.9279; CMV-LACZ in Myotubes, signal relative to DMSO ([4]; 20 uM): 0.9880; CMV-LACZ in Myotubes, signal relative to DMSO ([4]; 40 uM): 1.0300
